Laboratory results from patent US8834579B2, “Dye composition for hair dyeing and method for producing the same” (Hodogaya Chemical Co., Ltd., priority 2012, dated 2014).
Where two headings read alike, the source gives them in different places.

How the values were obtained:
[1] = system: Salmonella typhimurium TA98 strain; assay: Ames test (reverse mutation test), TA98 strain; type: cell-based
Description: (§1) The Ames test is a test system for detecting a phenomenon that a histidine-requiring strain, which cannot grow without a specific amino acid (for example, histidine), is returned to a histidine-nonrequiring strain by a gene mutation due to a mutational substance. The Ames test is also called a reverse mutation test because a strain regains its original nature by a gene mutation. In the case of a metabolic activation test, a test substance, a test strain, and an enzyme for activating metabolism of drugs (S-9Mix) are mixed, and the mixture is cultured for 48 hours at 37° C. using an agar medium after preincubation for 20 minutes at 37° C. The number of induced revertant colonies is counted, and it is determined to be positive in the case where the ratio (MR value) of the number of the induced revertant colonies to the number of revertant colonies appearing in a negative control is 2 or more (refer to, for example, “Bacterial Reverse Mutation Test.” OECD GUIDELINE FOR TESTING OF CHEMICALS, no. 471, Adopted: 21, Jul. 1997).
(§2) The metabolic activation test is a test carried out by adding an enzyme for activating metabolism of drugs (that is, S-9Mix) which is obtained from a liver of a rat or the like in order to bring a metabolic system of drugs for microbes close to that of mammals.
(§3) With respect to Basic Brown 16 before and after purification, the Ames test was carried out using Salmonella typhimurium TA98 strain and Salmonella typhimurium TA1537 strain with and without an enzyme for activating metabolism of drugs (S-9Mix) in each strain.
(§4) The Ames test was carried out on the same condition also with respect to the component indicating positive in the Ames test and represented by the structural formula (III) among impurities contained in Basic Brown 16.

[2] = system: Salmonella typhimurium TA1537 strain; assay: Ames test (reverse mutation test), TA1537 strain; type: cell-based
Description: as §1, §2, §3, §4

[3] = strain not stated; SCCP Opinion on Basic Brown 16, 2008; cited from earlier work
[4] = system: Salmonella typhimurium TA1537 strain; conditions: TA1537 (TA1537 strain and/or TA98 strain); SCCP Opinion on Basic Brown 16, 2008; cited from earlier work
[5] = system: Salmonella typhimurium TA98 strain; conditions: TA98 (TA1537 strain and/or TA98 strain); SCCP Opinion on Basic Brown 16, 2008; cited from earlier work

Structure (SMILES)	Ames test result ([1]; TA98)	MR value (ratio of induced revertant colonies to negative control) ([1]; TA98, +S9 (with S-9Mix))	MR value (ratio of induced revertant colonies to negative control) ([1]; TA98, −S9 (without S-9Mix))	Ames test result ([2]; TA1537)	MR value (ratio of induced revertant colonies to negative control) ([2]; TA1537, +S9 (with S-9Mix))	MR value (ratio of induced revertant colonies to negative control) ([2]; TA1537, −S9 (without S-9Mix))	Ames test result [3]	Ames test result [4]	Ames test result [5]
CN(C)c1ccc2ccc(O)c(N=Nc3ccc(N)cc3)c2c1 [Component of structural formula (III)]	positive (it is determined to be positive in the case where the ratio (MR value) of the number of the induced revertant colonies to the number of revertant colonies appearing in a negative control is 2 or more)	53.0	0.9	positive (it is determined to be positive in the case where the ratio (MR value) of the number of the induced revertant colonies to the number of revertant colonies appearing in a negative control is 2 or more)	10.5	1.2			
C[N+](C)(C)c1ccc2ccc(O)c(N=Nc3ccc(N)cc3)c2c1.[Cl-] [Basic Brown 16]							positive	positive	positive
